From patent US11806393B2, “Flavivirus peptide sequences, epitopes, and methods and uses thereof” (priority 2017, dated 2023)

How the values were obtained:
Format in all cases: cell-based, mouse
[1] = system: CD8+ T cells; test: IFNγ ELISPOT, ZIKV-infected Ifnar-/- HLA-B*0702 transgenic mice; settings: HLA-B*0702 mice; for SFC/10^6 CD8+ T cells, MR766: 7 days after 1×10^2 FFU ZIKV MR766; for SFC/10^6 CD8+ T cells, FSS13025: 7 days after 1×10^2 FFU ZIKV FSS13025; for immunodominance in IFNγ ELISPOT: immunodominant: >500 SFCs/10^6 CD8+ T cells, shared by both ZIKV strains
Protocol: (§1) Two ZIKV strains, MR766 (Uganda, 1947) and FSS13025 (Cambodia, 2010), were obtained from the World Reference Center for Emerging Viruses and Arboviruses (WRCEVA). The mouse-adapted DENV2 strain S221 is a triple-plaque purified clone derived from DENV2 D2S1038. Both ZIKV and DENV2 were amplified in C6/36 mosquito cells, and viral titers were measured using baby hamster kidney (BHK)-21 cell-based focus forming assay (FFA). For epitope screening, 5-week old mice (female or male) were infected retro-orbitally (R.O.) with either 1×102 FFU of ZIKV FSS13025 or ZIKV MR766, or 2×10^4 FFU of DENV2 S221 in 200 μl 10% FBS/PBS. Seven days after infection, CD8^+ T cells were isolated from splenocytes and used for ELISPOT assay, while the splenocytes were directly used for ICS assay. Additionally, 5-week old mice were inoculated I.P. with 2×10^3 FFU of DENV2 S221 for 4 weeks.
(§2) CD8^+ T cells were isolated from splenocytes using magnetic bead positive selection (Miltenyi Biotec, Germany) 7 days after virus infection. 2×10^5 CD8^+ T cells were stimulated with 1×10^5 LPS-blasts loaded with 10 μg of individual peptide in 96-well flat-bottom plates (IMMOBILON™-P; Millipore, Bedford, Mass.) that were coated with anti-IFNγ mAb (clone AN18; Mabtech, Stockholm, Sweden) in triplicate. Concanavalin A (ConA) was used as positive control. After 20 hours of incubation, biotinylated anti-mouse IFNγ mAb (R4-6A2; Mabtech), followed by ABC peroxidase (Vector Laboratories, Burlingame, Calif., USA) and then 3-amino-9-ethylcarbazole (Sigma-Aldrich, St. Louis, Mo., USA) were added into the wells. […] A peptide inducing a magnitude of >500 SFCs/10^6 CD8^+ T cells was considered as an immunodominant peptide.
Two independent experiments performed in triplicate were averaged and the error bars represent the SEM. The data are expressed as the mean number of spot forming cells (SFC) per 10^6 CD8^+ T cells. The criteria for positivity were net SFC per 10^6 cells of >20, and a stimulation index of >2.0 when compared with the negative control. Dotted lines represent the cutoff value. * Indicates a positive response. […] ConA denotes Concanavalin A.

[2] = system: CD8+ T cells; test: IFNγ ELISPOT, DENV2 S221-infected Ifnar-/- HLA-B*0702 transgenic mice; settings: HLA-B*0702 mice, 7 days after 2×10^4 FFU DENV2 S221
Protocol: as §1, §2
(§3) The following results are with respect to FIG. 14A and FIG. 14B, where Ifnar^−/− HLA-B*0702 transgenic mice were infected R.O. with 2×10^4 FFU of DENV2 strain S221 for 7 days. CD8^+ T cells isolated from splenocytes were stimulated with each of the 37 ZIKV epitopes identified via IFNγELISPOT to perform (FIG. 14A) IFNγELISPOT and (FIG. 14B) ICS assay. Data represent the average of two independent IFNγELISPOT experiments and two independent ICS experiments (n=7 mice) and are expressed as mean±SEM. Dotted line corresponds to the cutoff value. *, P<0.05.

[3] = system: CD3+CD8+ T cells; test: IFNγ ICS, ZIKV-infected Ifnar-/- HLA-B*0702 transgenic mice; settings: for % IFNγ+ CD8+ T cells, MR766 / % IFNγ+ CD8+ T cells, FSS13025: HLA-B*0702 mice; for % IFNγ+ CD8+ T cells, MR766: 7 days after ZIKV MR766, ICS; for % IFNγ+ CD8+ T cells, FSS13025: 7 days after ZIKV FSS13025, ICS; for simultaneous IFNγ and TNFα secretion by peptide-stimulated CD8+ T cells: mice infected with either ZIKV FSS13025 or ZIKV MR766
Protocol: as §1
(§4) Spleens were harvested from virus-infected, mock-immunized, or peptide-immunized mice. 1×10^6 splenocytes were plated in each well of 96-well U-bottom plates and stimulated with individual peptide (10 μg crude peptide or 1 μg pure peptide per well) for 6 hours. Five hours before the end of incubation, Brefeldin A (GolgiPlug; BD Biosciences) and PE-conjugated anti CD107a mAb (clone 1D4B, eBioscience) were added to the cells. Splenocytes stimulated with PMA-ionomycin were used as the positive control, while cells without any stimulation were the negative control. […] Samples were run using an LSR™ II (BD Biosciences) and analyzed using FLOWJO™ software X 10.0.7 (Tree Star, Ashland, Oreg.).
Data represent the average of two independent experiments and are expressed as mean±SEM. *, P<0.05; **, P<0.01; Two-tailed Mann-Whitney test. P/I denotes PMA/ionomycin.

[4] = system: CD8+ T cells; test: IFNγ ICS, DENV2 S221-infected Ifnar-/- HLA-B*0702 transgenic mice; settings: HLA-B*0702 mice; for % IFNγ+ CD8+ T cells, S221: 7 days after DENV2 S221, ICS; for ZIKV/DENV cross-reactivity in DENV2-infected mice (IFNγ ELISPOT and IFNγ ICS): DENV2 S221, 7 days
Protocol: as §1, §4, §3

[5] = system: CD44+CD62L- CD8+ T cells; test: ICS, peptide-immunized Ifnar-/- HLA-B*0702 mice challenged with ZIKV; settings: day 3 after ZIKV challenge; for percentage of IFNγ-producing cells among antigen experienced (CD44+CD62L-) CD8+ T cells: mice immunized with the 3 ZIKV immunodominant epitopes
Source text: Two HLA-B*0702-binding ZIKV-specific peptides (FSS-NS2A133-141(SEQ ID NO: 41) and FSS/MR766-NS2B68-75 (SEQ ID NO: 45)) and four ZIKV/DENV cross-reactive peptides (FSS/MR766-NS4B426-435 (SEQ ID NO: 60), FSS/MR766-NS2A75-84 (SEQ ID NO: 39), FSS/MR766-NS3206-215 (SEQ ID NO: 47), and FSS/MR766-NS3574-582 (SEQ ID NO: 52)) were chosen for synthesis. Five HLA-A*0101-binding peptides (FSS/MR-E159-167 (SEQ ID NO: 70), FSS/MR-E195-203 (SEQ ID NO: 71), FSS/MR-NS123-31 (SEQ ID NO: 74), FSS/MR-NS4B231-239 (SEQ ID NO: 77), and FSS/MR-NS5509-517 (SEQ ID NO: 79)) were chosen for synthesis. Mice (both female and male; 5-6 weeks of age) were immunized subcutaneously with a mixture of HCV helper peptide (100 μg/mouse) and 3 or 4 HLA-B*0702-binding peptides (50 μg/peptide/mouse) emulsified in Complete Freund's Adjuvant (CFA). Mock group mice received the same immunization strategy but without any ZIKV-specific or ZIKV/DENV cross-reactive peptide. On the 21st day, mice were boosted with the same peptide mixtures emulsified in Incomplete Freund's Adjuvant (IFA). […] Three days post ZIKV infection mice were sacrificed, and serum and spleen were harvested. The splenocytes were used for ICS assay. After cardiac perfusion with PBS, brain was harvested. The levels of infectious ZIKV in serum and brain were measured using FFA.
as §4
Peptide groups received corresponding peptide immunizations as described in Materials and Methods. […] CD3^+CD8^+CD44^+CD62L− T cells were gated and the percentages of IFNγ^+ and/or TNFα^+ cells in a representative mouse from mock (FIG. 12A) and peptide (FIG. 12B) groups were determined by ICS. The levels of infectious ZIKV in sera and brains were measured via FFA. Data were expressed as mean±SEM. *, P<0.05; **, P<0.01; ***, P<0.001. Two-tailed Mann-Whitney test.

[6] = system: CD8+ T cells; test: ICS, DENV2-immune Ifnar-/- HLA-B*0702 mice challenged with ZIKV FSS13025; settings: day 3 after ZIKV FSS13025 challenge
Protocol: as §1
Spleens were harvested from virus-infected, mock-immunized, or peptide-immunized mice. 1×10^6 splenocytes were plated in each well of 96-well U-bottom plates and stimulated with individual peptide (10 μg crude peptide or 1 μg pure peptide per well) for 6 hours. Five hours before the end of incubation, Brefeldin A (GolgiPlug; BD Biosciences) and PE-conjugated anti CD107a mAb (clone 1D4B, eBioscience) were added to the cells. Splenocytes stimulated with PMA-ionomycin were used as the positive control, while cells without any stimulation were the negative control. After incubation, cells were first stained with PERCPCY™ 5.5-conjugated anti-CD3 mAb (Clone 145-2C11, TONBO), PE-CY7™-conjugated anti-CD8 mAb (clone 53-67, BD Biosciences), EFLUOR™ 450-conjugated anti-CD44 mAb (clone IM7, eBioscience), and APC eFluor 780-conjugated anti-CD62L mAb (clone Mel-14, eBioscience). Cells were then fixed and permeabilized using CYTOFIX/CYTOPERM™ solution (BD Biosciences), followed by staining with FITC-conjugated anti-IFNγ mAb (clone XMG 1.2, TONBO) and APC-conjugated anti-TNFα mAb (clone MP6-XT22, eBioscience). Samples were run using an LSR™ II (BD Biosciences) and analyzed using FLOWJO™ software X 10.0.7 (Tree Star, Ashland, Oreg.).
The following results are with respect to FIG. 11 to FIG. 11E, where Ifnar^−/− HLA-B*0702 transgenic mice were inoculated I.P. with 2×10^3 FFU of DENV2 strain S221 for 4 weeks. Naive mice (n=5) and DENV2 strain S221-immune mice (n=5) were challenged R.O. with 1×10^4 FU of ZIKV FSS13025 for three days, and the percentages of peptide-specific IFNγ^+ and/or TNFα^+ CD8^+ T cells were detected by ICS (FIG. 11A and FIG. 11B). […] Data were expressed as mean±SEM. *, P<0.05; **, P<0.01; Two-tailed ann-Whitney test. Black “*” indicates ZIKV-specific response while bold “*” represents ZIKV/DENV cross-reactive response. All positive peptides were grouped according the ZIKV specificity of immune response (FIG. 11E). Numbers in parentheses indicate the number of positive peptides in this group.

Row | Sequence | SFC/10^6 CD8+ T cells, MR766 [1] | SFC/10^6 CD8+ T cells, S221 [2] | % IFNγ+ CD8+ T cells, MR766 [3] | SFC/10^6 CD8+ T cells, FSS13025 [1] | immunodominance in IFNγ ELISPOT [1] | % IFNγ+ CD8+ T cells, FSS13025 [3] | simultaneous IFNγ and TNFα secretion by peptide-stimulated CD8+ T cells [3] | % IFNγ+ CD8+ T cells, S221 [4] | ZIKV/DENV cross-reactivity in DENV2-infected mice (IFNγ ELISPOT and IFNγ ICS) [4] | percentage of IFNγ-producing cells among antigen experienced (CD44+CD62L-) CD8+ T cells [5] | percentage of epitope-specific cells among antigen experienced (CD44+CD62L-) CD8+ T cells ([5]; mice immunized with the 4 ZIKV/DENV cross-reactive peptides) | simultaneous IFNγ and TNFα production by peptide-stimulated CD8+ T cells ([3]; ZIKV MR766-infected mice) | percentage of epitope-specific IFNγ-producing CD8+ T cells [6]
1 | LPEIVREAI [FSS/MR-NS3188-196] | 179 SFC/10^6 CD8+ T cells | 63 SFC/10^6 CD8+ T cells | (0.23%) | – | – | – | – | – | – | – | – | – | –
2 | RPGAFCIKVL [FSS/MR-NS4B426-435] | 1362 SFC/10^6 CD8+ T cells | 90 SFC/10^6 CD8+ T cells | (2.36%) | 1223 SFC/10^6 CD8+ T cells | most immunodominant epitope | (2.28%) | simultaneously secreted both IFNγ and TNFα | (0.3%) | positive in both IFNγ ELISPOT and IFNγICS assays | 1.63±0.76% | 1.52±0.42% | – | –
3 | RPRVCTKEEF [FSS/MR-NS5140-149] | 311 SFC/10^6 CD8+ T cells | – | (0.24%) | 162 SFC/10^6 CD8+ T cells | – | – | – | 0.28% | – | – | – | – | –
4 | RVCSDHAAL [FSS/MR-NS3581-589] | 411 SFC/10^6 CD8+ T cells | 44 SFC/10^6 CD8+ T cells | (0.31%) | – | – | – | – | – | – | – | – | – | –
5 | SPRLDVAL [FSS/MR-NS2B68-75] | 993 SFC/10^6 CD8+ T cells | – | (0.77%) | 963 SFC/10^6 CD8+ T cells | immunodominant | (0.56%) | – | – | – | 0.61±0.47% | – | stimulated simultaneous production of IFNγ and TNFα | –
6 | TPRESMLLAL [FSS/MR-NS2A89-99] | 823 SFC/10^6 CD8+ T cells | 55 SFC/10^6 CD8+ T cells | (0.95%) | 807 SFC/10^6 CD8+ T cells | immunodominant | (0.56%) | simultaneously secreted both IFNγ and TNFα | – | – | – | – | – | –
7 | VPRTDNITL [FSS-NS2A133-141] | 1182 SFC/10^6 CD8+ T cells | – | (1.07%) | 786 SFC/10^6 CD8+ T cells | immunodominant | (0.9%) | – | – | – | 0.86%±0.71 | – | – | –
8 | VPTGRTTVV (VPTGRTTW) [FSS/MR-NS5539-546] | 121 SFC/10^6 CD8+ T cells | 54 SFC/10^6 CD8+ T cells | (0.25%) | – | – | – | – | (0.18%) | positive in both IFNγ ELISPOT and IFNγICS assays | – | – | – | –
9 | VVMILGGFSM [MR-NS2A31-40] | 106 SFC/10^6 CD8+ T cells | 51 SFC/10^6 CD8+ T cells | (0.37%) | – | – | – | – | – | – | – | – | – | 0.42±0.12%
